For data set [1], the system named is gamma-glutamyltranspeptidase (GGT). Description: GGT activity assay in fecal samples. It is filed as biochemical. Conditions: fecal samples exposed in vitro, 500 uM. How it is done:
GGT activity was measured as previously described in van der Stel, Frontiers in Microbiology (6), 567 (2015). For anaerobic cultures, bacteria were seeded at 3×10^5 cfu/ml in CD- and KD-based media. 1 ml bacterial suspension was pelleted and frozen at −80° C. for 1 hr. Separate aliquots of the same suspension were plated in BHI mucin agar media or RCM and incubated at 37° C. in a Coy anaerobic chamber for later data normalization by bacterial cfu. Pellets were then resuspended in 250 ul lysis buffer (50 mM Tris-HCl with 1 ug/ml lysozyme) and incubated on ice for 30 min. For fecal samples, one pellet was weighed and homogenized in 1 ml lysis buffer. Bacterial and fecal suspensions were then sonicated (QSonica 125) and centrifuged at 12000×g for 10 min at 4° C. […] Absorbance at 405 nm denoting production of 3-carboxy-4-nitroaniline was measured every minute for 1 hr at 37° C. using an automated multimode plate reader (Biotek Synergy H1).
To gain insight into whether the KD and interactions between A. muciniphila and Parabacteroides spp. suppressed bacterial gamma-glutamylation in vivo, GGT activity was measured in fecal samples collected from SPF or A. muciniphila and Parabacteroides spp.-enriched mice fed the CD or KD.

Data set [2] concerns P. merdae. Description: Cross-feeding in vitro assay, P. merdae growth and viability. Format: cell-based. Conditions: pre-treatment 500 uM, 2 hours, pilot experiments. On the procedure:
(§1) Cross-feeding was measured as previously described. A. muciniphila was embedded at 2×10^6 cfu/ml in 5 ml pre-reduced CD or KD-based liquid media supplemented with 1% agar at the bottom of an anaerobic tube, and P. merdae was overlaid above it at 6×10^6 cfu/ml in 5 ml pre-reduced M9 minimal media. Diet-based media were generated by aseptically suspending mouse KD vs. CD diets, described above, to 2 kcal/ml in M9 media. Pilot experiments confirmed no ectopic translocation of embedded A. muciniphila from the agar compartment into the above M9 liquid compartment. For each time point, aliquots were taken from the top and bottom compartments, plated in a dilution series in rich media (RCM for P. merdae and BHI+0.05% mucins for A. muciniphila), and colonies were counted. For GGsTop pre-treatment experiments, P. merdae was incubated with 500 uM GGsTop vs vehicle in RCM media at 37° C. for 2 hours and then washed with sterile media.

Data set [3] relates to Kcna1−/− mice. Description: Kcna1 seizure recordings (EEG). Conditions: CD-fed SPF Kcna1−/− mice; 13.3 mg/kg oral gavage every 12 hours. It is filed as in vivo, mouse. On the procedure:
EEG Implantation and Recovery. EEGs were recorded from male and female Kcna1^−/− mice at 6-7 weeks of age. Kcna1^+/+ littermates were used as controls. […] Data presented include both sexes. Mice were anesthetized with isoflurane (5% induction, 2% maintenance) and eye ointment applied to each eye. Fur was removed along the head, and the area was cleaned with three alternative scrubs of chlorohexidine and 70% isopropanol. In a biosafety cabinet, mice were positioned in a stereotaxic apparatus (Harvard Biosciences) and 1 mg/kg lidocaine+1 mg/kg bupivacaine was applied locally along the incision site. […]
During EEG recordings animals were freely moving and maintained on experimental diet. […] Simultaneous video recordings of behavioral seizures were correlated with EEG recordings and scored based on an adapted Racine scale and defined by 5 stages: 1) myoclonic jerk, 2) head stereotypy and facial clonus, 3) bilateral and alternating forelimb/hindlimb clonus, 4) rearing and falling, and 5) generalized tonic-clonic episodes. Data were analyzed by a blinded researcher using Neuroscore CNS Software (DSI). EEG signals were filtered using a 10 Hz high pass filter, and seizure events were detected by blinded manual scoring. […]
For wild type mice: 4-week old SPF Swiss Webster mice were fed CD ad libitum for 14 days. […] Seizures were recorded over 3 days by EEG beginning 2 hours after the final gavage. […]

Data set [4] concerns Swiss Webster mice. Description: 6-Hz psychomotor seizure assay. It is filed as in vivo, mouse.
Procedure: All subsequent experimental cohorts contained male mice. One drop (˜50 ul) of 0.5% tetracaine hydrochloride ophthalmic solution was applied to the corneas of each mouse 10-15 min before stimulation. Corneal electrodes were coated with a thin layer of electrode gel (Parker Signagel). A constant-current current device (ECT Unit 57800, Ugo Basile) was used to deliver current at 3 sec duration, 0.2 ms pulse-width and 6 pulses/s frequency. CC50 (the intensity of current required to elicit seizures in 50% of the experimental group) was measured as a metric for seizure susceptibility. […] Each mouse was seizure-tested only once, and thus at least n>6 mice were used to adequately power each experiment group. To determine CC50s for each experimental group, 24 mA currents were administered to the first mouse per experimental group per cohort, followed by fixed increases or decreases by 2 mA intervals. […] Locomotor behavior was recorded using Ethovision XT software (Noldus) and quantitative measures for falling, tail dorsiflexion (Straub tail), forelimb clonus, eye/vibrissae twitching and behavioral remission were scored manually. […] Latency to exploration (time elapsed from when an experimental mouse is released into the observation cage (after corneal stimulation) to its first lateral movement) was scored using Ethovision and manually with an electronic timer. […]
For data set [5], the system named is A. muciniphila. Description: Cross-feeding in vitro assay, A. muciniphila growth. Format: cell-based, Akkermansia muciniphila. Conditions: exposed to P. merdae pre-treated with 500 uM for 2 hours; 24 hours after incubation; vs vehicle-treated P. merdae. How it is done: as §1

Take `COP(=O)(CCC(N)C(=O)O)Oc1cccc(CC(=O)O)c1` (stereo not drawn) [GGsTop, 3-[[(3-amino-3-carboxypropyl)methoxyphosphinyl]oxy]benzeneacetic acid]: the “GGT activity signal of fecal samples” value in data set [1] is “eliminated the detected signals”. In addition, the P. merdae viability entry in data set [2] is reported as “no significant effect”. In addition, in data set [3], the Seizures per day entry is reported as “significant decrease in seizures per day”. Further, the Seizure threshold entry in data set [4] (SPF CD mice gavaged for 3 days, 13.3 mg/kg every 12 hours) was “increases in seizure thresholds”. Moreover, the A. muciniphila growth entry in data set [5] is given as “increased growth”.
Take Bifidobacterium longum: the “Protection against 6-Hz seizures / seizure threshold” value in data set [4] (Abx-treated SPF mice gavaged with 10^9 cfu bacteria, fed KD, tested at 14 days) was “no effect”.

The values are drawn from patent publication US11883441B2, “Compositions and methods for inhibiting seizures” (The Regents of the University of California, priority 2016, dated 2024).
